Laboratory results reported in patent US20220168301A1, “METHODS FOR TREATING SYMPTOMATIC ORTHOSTATIC HYPOTENSION” (Cerecor Inc, priority 2019, published 2022).
Read-outs that look alike come from different tables or passages of the source.

Columns and labels:
[1] = Plasma pharmacokinetics of CERC-301, single and 7-day repeated dose, healthy subjects; type: in vivo, human; settings: for half-life: read-out: Average t1/2; for Tmax: read-out: Median tmax
Method: (§1) The study was a randomized, double-blind, placebo-controlled parallel-group, three-part, repeated dose in-patient study investigating the safety, tolerability, PK, and PD of CERC-301 in healthy subjects.
(§2) Subjects received 8, 12, 16 or 20 mg CERC-301 or matching placebo once-daily for 7 days.
PK endpoints included the following determined from plasma CERC-301 concentration data: • Day 1 parameters include Cmax, Tmax, AUC0-24, AUC0-inf, AUC%extrap, CL/F, Vz/F, and t1/2 • Day 7 parameters include Cmax, Tmax, AUC0-24, AUC0-inf, AUC%extrap, CL/F, Vss/F, t1/2, and Cavg • Trough concentrations will be reported for Days 2-8 • Accumulation after 7-days of dosing will be investigated by calculating: • Observed Accumulation Ratio: AUCo-24 (Day 7)/AUC0-24 (Day 1) • Steady State Accumulation Ratio: AUC0-24 (Day 7)/AUC0-int (Day 1) • Cmax ratio: Cmax (Day 7)/Cmax (Day 1)
Pharmacokinetic parameters were determined for CERC-301 using noncompartmental methods based on plasma CERC-301 concentration data following the first and last dose of CERC-301. […] Mean plasma CERC-301 concentrations on Day 7 were approximately 20% to 40% higher from 2 to 24 hours postdose in the intermediate age and elderly subgroups, respectively, compared to the young age subgroup, and were approximately 20% higher from 2 to 24 hours postdose in female subjects compared to male subjects.

[2] = monkeys, cited from earlier work
[3] = system: healthy subjects; experiment: Safety and tolerability over 7 days of once-daily administration in healthy subjects; type: in vivo, human
Method: as §1, §2
The safety variables evaluated included treatment-emergent adverse events (TEAE), vital signs, clinical safety laboratories (chemistry, hematology, urinalysis), electrocardiograms (ECGs), physical examinations, Clinician Administered Dissociated States Scale (CADSS) and Columbia-Suicide Severity Rating Scale (C-SSRS).

Cc1ccc(COC(=O)N2CC[C@H](CNc3ncccn3)[C@H](F)C2)cc1 [CERC-301]
Plasma CERC-301 concentrations increase with dose ([1]; 8 to 20 mg, steady-state daily dosing): approximately dose proportional | Apparent oral clearance, lower in female subjects compared to male subjects ([1]; Day 7): approximately 15% | Apparent oral clearance, lower in intermediate age group compared to young age group ([1]; Day 7): approximately 18% | Average Cmax, higher in intermediate age and elderly subgroups compared to young age group ([1]; Day 7): approximately 30% | Average t1/2, higher in elderly age group compared to young age group ([1]; Day 7): ~38% | Average t1/2, higher in female subjects compared to male subjects ([1]; Day 7): approximately 16% | Average t1/2, higher in intermediate age group compared to young age group ([1]; Day 7): approximately 27% | Mean plasma CERC-301 concentrations, higher in elderly subgroup compared to young age subgroup ([1]; Day 7, 2 to 24 hours postdose): ~40% | Mean plasma CERC-301 concentrations, higher in female subjects compared to male subjects ([1]; Day 7, 2 to 24 hours postdose): approximately 20% | Mean plasma CERC-301 concentrations, higher in intermediate age subgroup compared to young age subgroup ([1]; Day 7, 2 to 24 hours postdose): approximately 20% | Cmax and AUC increase with dose ([1]; Days 1 and 7, 8 to 20 mg): approximately dose-proportional | half-life ([1]; both sexes, human, plasma, oral, male and female subjects, Day 7): 21 to 24 h | Tmax ([1]; both sexes, human, plasma, oral, male and female subjects): 1.75 to 2 h | Average Day 7 to Day 1 Cmax ratio ([1]; elderly age group): 1.53 | Mean observed accumulation index ([1]; elderly age group): 2.12 | Mean steady state accumulation index ([1]; elderly age group): 1.30 | Average apparent volume of distribution ([1]; elderly age subgroup, Day 7): 111 L | Average Day 7 to Day 1 Cmax ratio ([1]; females): 1.38 | Mean observed accumulation index ([1]; females): 1.88 | Mean steady state accumulation index ([1]; females): 1.10 | Average apparent volume of distribution ([1]; females, Day 7): 105 L | Oral bioavailability ([1]; human, in vivo, po): orally bioavailable | Tmax ([1]; human, plasma, oral, Day 1, 8 to 20 mg): 2 to 3 h | Tmax ([1]; human, plasma, oral, Day 7, 8 to 20 mg): 1.5 to 3 h | Tmax ([1]; human, plasma, oral, young subjects, Days 1 and 7, 8 to 20 mg): 1.5 to 3 h | half-life ([1]; human, plasma, oral, young, intermediate age and elderly subgroups, Day 7): 20 to 28 h | Tmax ([1]; human, plasma, oral, young, intermediate age and elderly subgroups): 1.5 to 2.5 h | Vd ([1]; human, plasma, oral, young subjects, Day 7, 8 to 20 mg, read-out: Average apparent volume of distribution): 83 to 115 L | half-life ([1]; human, plasma, oral, young subjects, Day 7, 8 to 20 mg): 17 to 21 h | Average Day 7 to Day 1 Cmax ratio ([1]; intermediate age group): 1.41 | Mean observed accumulation index ([1]; intermediate age group): 1.92 | Mean steady state accumulation index ([1]; intermediate age group): 1.13 | Average apparent volume of distribution ([1]; intermediate age subgroup, Day 7): 121 L | Average Day 7 to Day 1 Cmax ratio ([1]; males): 1.36 | Mean observed accumulation index ([1]; males): 1.72 | Mean steady state accumulation index ([1]; males): 1.15 | Average apparent volume of distribution ([1]; males, Day 7): 108 L | Steady-state predose plasma CERC-301 concentrations achieved ([1]; repeated daily doses): by study day 5 or 6 | Average Day 7 to Day 1 Cmax ratio ([1]; young age group): 1.15 | Mean observed accumulation index ([1]; young age group): 1.65 | Mean steady state accumulation index ([1]; young age group): 1.01 | Average apparent volume of distribution ([1]; young age subgroup, Day 7): 115 L | Steady-state accumulation index (AUC0-24 Day 7/AUC0-inf Day 1) ([1]; young subjects, on average): 1.1 | Excretion [2]: excreted exclusively as metabolites via both the biliary and renal routes | Metabolism [2]: highly metabolized via multiple cytochrome P450 (CYP450) enzymes | Absorption ([2]; oral administration): rapidly absorbed after oral administration | Changes in vital signs, ECGs or physical examination attributable to CERC-301 ([3]; 8 to 20 mg for 7 days): no clinically significant adverse changes | Dose-related or age-related differences in TEAEs or related AEs ([3]; 8 to 20 mg for 7 days): no clear-cut dose-related or age-related differences | Most common related AEs (each in at least two subjects receiving CERC-301) ([3]; 8 to 20 mg for 7 days): feeling abnormal, headache, feeling of relaxation, elevated mood, dizziness, logorrhea, sedation, visual impairment, energy increased, palpitations, disturbance in attention, hypervigilance, confusional state, oral paresthesia, anxiety, chest pain, depressed mood, diarrhea, and balance disorder | Laboratory abnormalities attributable to CERC-301 ([3]; except ALT/AST increases in one elderly and elevated prolactin in one young, both 12 mg): no clinically significant laboratory abnormalities | Tolerability ([3]; repeated daily doses of 8, 12, 16 and 20 mg for 7 days): generally well tolerated
